Measured values reported in patent US20090155784A1, “ASSESSMENT OF ASTHMA AND ALLERGEN-DEPENDENT GENE EXPRESSION” (Wyeth, priority 2007, published 2009).

System: PBMCs from healthy volunteers
Experiment: HG-U133A baseline gene expression in PBMCs of healthy volunteers (HV), cPLA2 inhibitor in the absence of allergen (no AG)
Type: cell-based, human
Description: PBMCs were stimulated in vitro with a cocktail containing 4 different allergens from house dust mite, ragweed and cat. Recombinant allergens, Der p1, Der f2, Fel d1 (Indoor Biotech, Charlottesville, Va.) and natural ragweed allergen (Allergy Lab, Seattle, Wash.) were selected and screened for endotoxin contamination (LAL Endotoxin Test, Catalog #HIT302, sensitivity, 0.0001 Eu/ml, Cell Sciences, Canton, Mass.). The sensitivity of the subjects was unknown but the allergens were chosen based on the estimate that 80% of allergic individuals are believed to react to one or more of these allergens. Culture medium contained RPMI-1640 (Sigma) with 10% heat inactivated FCS (Sigma St. Louis, Mo.) and 100 unit/mL Penicillin and […] Streptomycin and 0.292 mg/mL Glutamine (GIBCO RL Invitrogen, Carlsbad, Calif.). The final allergen cocktail concentrations in culture medium were: Der p1 and Der f2 (dust mite), 1 mg/ml; Fel d1 (cat), 1.25 mg/ml; ragweed, 125 mg/ml. The total level of endotoxin contamination in culture medium was 0.057 Eu/ml. The cPLA2 inhibitor 4-{3-[1-benzhydryl-5-chloro-2-(2-{[(2,6-dimethylbenzyl)sulfonyl]amino}ethyl)-1H-indol-3-yl]propyl}benzoic acid was used at a concentration of 0.3 μM/ml. Zileuton, a 5-lipoxygenase inhibitor, was added at a concentration of 5 μM. The inhibitory activity of both the cPLA2 inhibitor and Zileuton samples were verified in a human whole blood assay. After 6 days in culture approximately 200 μL of supernatant was removed using an 8-channel pipettor without disturbing the cell pellet and placed into a collection plate for cytokine ELISA assays. To the remaining cell pellet 100 μL of RLT lysis buffer containing 1% beta-mercaptoethanol was added and snap frozen for RNA purification.
RNA was purified using QIA shredders and Rneasy mini kits (Qiagen, Valencia, Calif.). PBMC pellets frozen in RLT lysis buffer containing 1% β-mercaptoethanol were thawed and processed for total RNA isolation using the QIA shredder and RNeasy mini kit. A phenol:chloroform extraction was then performed, and the RNA was repurified using the RNeasy mini kit reagents. Eluted RNA was quantified using a Spectramax96 well plate UV reader (Molecular Devices, Sunnyvale, Calif., USA) monitoring A260/280 OD values. The quality of each RNA sample was assessed by capillary electrophoresis alongside an RNA molecular weight ladder on the Agilent 2100 bioanalyzer (Agilent Technologies, Palo Alto, Calif., USA). RNA samples were assigned quality values of intact (distinct 18S and 28S bands); partially degraded (discernible 18S and 28S bands with presence of low molecular weight bands) or completely degraded (no discernible 18S and 28S bands).
Labeled targets for oligonucleotide arrays were prepared using a modification of the procedure described by Lockhart et al. (Lockhart (1996) Nat. Biotechnol. 14:1675-80). Labeled targets were hybridized to the HG-U133A Affymetrix GeneChip Array as described in the Affymetrix technical manual. Eleven biotinylated control transcripts ranging in abundance from 3 parts per million (ppm) to 100 ppm were spiked into each sample to function as a standard curve (Hill (2001) Genome Biol. 2:RESEARCH0055). GeneChip MAS 5.0 software was used to evaluate the hybridization intensity, compute the signal value for each probe set and make an absent/present call.
GeneChips were required to pass the pre-set quality control criteria that the RNA quality metric required a 5′:3′ ratio. Two asthma subjects were excluded from the study due to failure to meet the RNA quality metric and 2 GeneChips from the group treated with cPLA2a inhibitor were excluded for the same reason. The signal value for each probe set was converted into a frequency value representative of the number of transcripts present in 10^6 transcripts by reference to the standard curve (Hill (2001) Genome Biol. 2:RESEARCH0055). […]

Cc1cccc(C)c1CS(=O)(=O)NCCc1c(CCCc2ccc(C(=O)O)cc2)c2cc(Cl)ccc2n1C(c1ccccc1)c1ccccc1 [cPLA2 inhibitor, 4-{3-[1-benzhydryl-5-chloro-2-(2-{[(2,6-dimethylbenzyl)sulfonyl]amino}ethyl)-1H-indol-3-yl]propyl}benzoic acid]
Fold Change cPLA2 inhibitor vs. no AG HV (probeset 208723_at, gene USP11): 1.191 fold
Fold Change cPLA2 inhibitor vs. no AG HV (probeset 208735_s_at, gene CTDSP2): 1.214 fold
Fold Change cPLA2 inhibitor vs. no AG HV (probeset 208881_x_at, gene IDI1): 1.288 fold
Fold Change cPLA2 inhibitor vs. no AG HV (probeset 208962_s_at, gene UNK_BE540552): 1.667 fold
Fold Change cPLA2 inhibitor vs. no AG HV (probeset 208963_x_at, gene FADS1): 1.668 fold
Fold Change cPLA2 inhibitor vs. no AG HV (probeset 208992_s_at, gene STAT3): 1.161 fold
Fold Change cPLA2 inhibitor vs. no AG HV (probeset 209417_s_at, gene IFI35): 1.367 fold
Fold Change cPLA2 inhibitor vs. no AG HV (probeset 209949_at, gene NCF2): 1.229 fold
Fold Change cPLA2 inhibitor vs. no AG HV (probeset 209969_s_at, gene STAT1): 1.315 fold
Fold Change cPLA2 inhibitor vs. no AG HV (probeset 210029_at, gene INDO): 2.207 fold
Fold Change cPLA2 inhibitor vs. no AG HV (probeset 210146_x_at, gene LILRB2): 1.473 fold
Fold Change cPLA2 inhibitor vs. no AG HV (probeset 210176_at, gene TLR1): 1.302 fold
Fold Change cPLA2 inhibitor vs. no AG HV (probeset 210495_x_at, gene FN1): −16.2745 fold
Fold Change cPLA2 inhibitor vs. no AG HV (probeset 210524_x_at, gene UNK_AF078844): 1.984 fold
Fold Change cPLA2 inhibitor vs. no AG HV (probeset 210754_s_at, gene LYN): 1.482 fold
Fold Change cPLA2 inhibitor vs. no AG HV (probeset 210784_x_at, gene LILRB3): 1.348 fold
Fold Change cPLA2 inhibitor vs. no AG HV (probeset 210962_s_at, gene AKAP9): −1.163 fold
Fold Change cPLA2 inhibitor vs. no AG HV (probeset 211133_x_at, gene LILRB3): 1.349 fold
Fold Change cPLA2 inhibitor vs. no AG HV (probeset 211135_x_at, gene LILRB3): 1.416 fold
Fold Change cPLA2 inhibitor vs. no AG HV (probeset 211456_x_at, gene UNK_AF333388): 2.494 fold
Fold Change cPLA2 inhibitor vs. no AG HV (probeset 211661_x_at, gene PTAFR): 1.264 fold
Fold Change cPLA2 inhibitor vs. no AG HV (probeset 211719_x_at, gene FN1): −18.8559 fold
Fold Change cPLA2 inhibitor vs. no AG HV (probeset 212066_s_at, gene USP34): −1.173 fold
Fold Change cPLA2 inhibitor vs. no AG HV (probeset 212185_x_at, gene MT2A): 2.359 fold
Fold Change cPLA2 inhibitor vs. no AG HV (probeset 212274_at, gene UNK_AV705559): 1.2259 fold
Fold Change cPLA2 inhibitor vs. no AG HV (probeset 212318_at, gene TNPO3): 1.195 fold
Fold Change cPLA2 inhibitor vs. no AG HV (probeset 212464_s_at, gene FN1): −16.6219 fold
Fold Change cPLA2 inhibitor vs. no AG HV (probeset 212859_x_at, gene MT2A): 2.114 fold
Fold Change cPLA2 inhibitor vs. no AG HV (probeset 212907_at, gene SLC30A1): 1.527 fold
Fold Change cPLA2 inhibitor vs. no AG HV (probeset 213571_s_at, gene EIF4EL3): 1.18 fold
Fold Change cPLA2 inhibitor vs. no AG HV (probeset 213629_x_at, gene MT1F): 1.953 fold
Fold Change cPLA2 inhibitor vs. no AG HV (probeset 213716_s_at, gene SECTM1): 1.603 fold
Fold Change cPLA2 inhibitor vs. no AG HV (probeset 214038_at, gene UNK_AI984980): 2.289 fold
Fold Change cPLA2 inhibitor vs. no AG HV (probeset 214179_s_at, gene NFE2L1): 1.302 fold
Fold Change cPLA2 inhibitor vs. no AG HV (probeset 214730_s_at, gene GLG1): 1.22 fold
Fold Change cPLA2 inhibitor vs. no AG HV (probeset 215051_x_at, gene AIF1): 1.464 fold
Fold Change cPLA2 inhibitor vs. no AG HV (probeset 215223_s_at, gene SOD2): 1.584 fold
Fold Change cPLA2 inhibitor vs. no AG HV (probeset 216336_x_at, gene UNK_AL031602): 1.748 fold
Fold Change cPLA2 inhibitor vs. no AG HV (probeset 216442_x_at, gene FN1): −15.6848 fold
Fold Change cPLA2 inhibitor vs. no AG HV (probeset 216841_s_at, gene SOD2): 1.463 fold
Fold Change cPLA2 inhibitor vs. no AG HV (probeset 217165_x_at, gene MT1F): 2.496 fold
Fold Change cPLA2 inhibitor vs. no AG HV (probeset 217965_s_at, gene HCNGP): 1.185 fold
Fold Change cPLA2 inhibitor vs. no AG HV (probeset 218154_at, gene FLJ12150): 1.267 fold
Fold Change cPLA2 inhibitor vs. no AG HV (probeset 218472_s_at, gene PELO): 1.163 fold
Fold Change cPLA2 inhibitor vs. no AG HV (probeset 219159_s_at, gene SLAMF7): 1.736 fold
Fold Change cPLA2 inhibitor vs. no AG HV (probeset 219519_s_at, gene SN): 2.441 fold
Fold Change cPLA2 inhibitor vs. no AG HV (probeset 219788_at, gene PILRA): 1.371 fold
Fold Change cPLA2 inhibitor vs. no AG HV (probeset 221165_s_at, gene IL22): 1.835 fold
Fold Change cPLA2 inhibitor vs. no AG HV (probeset 221558_s_at, gene LEF1): −1.137 fold
Fold Change cPLA2 inhibitor vs. no AG HV (probeset 221581_s_at, gene WBSCR5): 1.343 fold
Fold Change cPLA2 inhibitor vs. no AG HV (probeset 222218_s_at, gene PILRA): 1.292 fold
